From US20230295213A1, “CD73 INHIBITORS AND PHARMACEUTICAL USES THEREOF” (RISEN (SUZHOU) PHARMA TECH CO., LTD., priority 2018, published 2023)

Molecular target: CD73 (Homo sapiens (Human), UniProt P21589)
Assay: CD73 enzyme inhibition assay (Malachite Green Phosphate Detection Kit)
Type: biochemical
Conditions: CD73 protein 0.5 μg/mL (2x), Tris-HCl pH 7.3, OD 620 nm; read-out: Potency (IC50 class), inhibitory activity in CD73 enzyme assay
Experimental: To evaluate the inhibitory effect of selected compounds on CD73, Malachite Green Phosphate Detection Kit (R&D, Cat #DY996) was used. Briefly, compounds were dissolved and diluted to the desired concentration using phosphate-free buffer (Tris-HCl, pH 7.3). 25 μL of the compound solution was added to an equal volume of CD73 protein solution (2× concentration, 0.5 μg/mL, Novoprotein, Cat #C446), followed by a 5-minute incubation at room temperature. 10 μL of Malachite Green Reagent A was added to each well, mixed thoroughly and incubated for 10 minutes at room temperature. 10 μL of Malachite Green Reagent B was then added to each well, mixed thoroughly and incubated for 20 minutes at room temperature. Finally, the optical density of each well was determined using a microplate reader set to 620 nm.

Sequence of CD73 (P21589 27-574): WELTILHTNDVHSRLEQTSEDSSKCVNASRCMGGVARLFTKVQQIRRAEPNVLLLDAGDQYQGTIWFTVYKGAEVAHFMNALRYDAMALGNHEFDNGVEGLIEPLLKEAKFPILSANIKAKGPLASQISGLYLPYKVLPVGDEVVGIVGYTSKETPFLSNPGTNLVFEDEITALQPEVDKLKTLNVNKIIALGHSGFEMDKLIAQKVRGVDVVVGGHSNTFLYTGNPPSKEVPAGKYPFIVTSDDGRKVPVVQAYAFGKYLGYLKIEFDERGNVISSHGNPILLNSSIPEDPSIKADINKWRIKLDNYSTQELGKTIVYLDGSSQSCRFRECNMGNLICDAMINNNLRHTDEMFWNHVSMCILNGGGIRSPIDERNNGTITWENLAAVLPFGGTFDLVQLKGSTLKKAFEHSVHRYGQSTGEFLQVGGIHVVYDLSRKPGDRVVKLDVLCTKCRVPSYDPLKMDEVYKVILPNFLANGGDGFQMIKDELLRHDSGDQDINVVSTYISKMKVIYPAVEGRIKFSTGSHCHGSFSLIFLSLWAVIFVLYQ

Row | Structure (SMILES) | IC50 [nM]
1 | O=P(O)(O)CP(=O)(O)OC[C@H]1O[C@@H](n2cnc3c(N4C5CCC4CC(O)C5)nc(Cl)nc32)[C@@H](O)C1O (stereo partly shown) [Compound 51] | < 10

Same assay, conditions: qualitative statement

Row | Structure (SMILES) | inhibitory activity in the CD73 enzyme assay
2 | O=P(O)(O)CP(=O)(O)CC[C@H]1O[C@@H](n2cnc3c(NCc4ccccc4)nc(Cl)nc32)[C@@H](O)C1O (stereo partly shown) [a-1] | showed inhibitory activity
3 | C[C@]12C[C@@H]3C[C@](C)(C1)C[C@@](Nc1nc(Cl)nc4c1ncn4[C@@H]1O[C@H](CCP(=O)(O)CP(=O)(O)O)C(O)[C@@H]1O)(C3)C2 (stereo partly shown) [a-9] | showed inhibitory activity
4 | O=P(O)(O)CP(=O)(O)CC[C@H]1O[C@@H](n2cnc3c(N4CCC5(CCCCC5)C4)nc(Cl)nc32)[C@@H](O)C1O (stereo partly shown) [a-31] | showed inhibitory activity

Tested on: not listed separately
Assay: Pharmacokinetic evaluation in ICR mice, intravenous
Type: in vivo
Conditions: mouse; ICR male mice, 1.0 mg/kg intravenous, plasma
Experimental: A test compound (1.0 mg/kg) was administered to fasted ICR male mice via intravenous injection, and blood samples were collected at time points of 0.08, 0.25, 0.5, 1, 2, 4, 6, 8 and 24 h after the administration. Plasma sample was separated by centrifugation (8000 rpm) and stored at −80° C. until the sample was analyzed. Concentrations of the test compound in the plasma were determined by HPLC-MS/MS: the plasma was dispensed into appropriate tubes containing internal standard and methanol or acetonitrile. The tubes were mixed vigorously for 3 minutes to achieve deproteinization and then centrifuged at 8000 rpm for 5 minutes. The supernatant was transferred to an autosampler vial, injected into the chromatographic system, and quantified on MS/MS detector. Pharmacokinetic parameters including AUC0-t, Cmax, Tmax, t1/2, MRT, Cl and Vd were calculated using WinNonlin 6.3 software. Table 3 summarizes key PK parameters for test compounds (AUC(0-t): the area under the curve from time 0 to time t; AUC(0-∞): the area under the curve from time 0 to infinity; t1/2: Half-life; CL: clearance; C0: the concentration of drug in blood if the drug molecules enter the circulation and are distributed immediately (i.e., at time 0)).

Row | Structure (SMILES) | AUC(0-inf) [ng·h/mL] | AUC(0-t) [ng·h/mL] | Cmax [ng/mL] | half-life [h]
5 | C[C@H](Nc1cc(Cl)nc2c1cnn2[C@@H]1O[C@H](COP(=O)(O)CP(=O)(O)O)[C@@H](O)[C@H]1O)c1ccccc1F [Compound a, AB680, reference compound] | 24200 | 24000 | 11700 | 3.41
6 | O=P(O)(O)CP(=O)(O)OC[C@H]1O[C@@H](n2cnc3c(N4CCC5(CCCCC5)C4)nc(Cl)nc32)[C@@H](O)C1O (stereo partly shown) [Compound b, reference compound] | 9120 | 9110 | 15200 | 0.85
7 | O=P(O)(O)CP(=O)(O)OC[C@H]1O[C@@H](n2cnc3c(N4CC5(CCc6ccccc65)C4)nc(Cl)nc32)[C@@H](O)C1O (stereo partly drawn) [d-1] | 6360 | 6360 | 8850 | 0.556
8 | O=P(O)(O)CP(=O)(O)OC[C@H]1O[C@@H](n2cnc3c(N4CCC5(CCCc6ccccc65)C4)nc(Cl)nc32)[C@@H](O)C1O (stereo partly drawn) [d-6] | 6680 | 6670 | 7840 | 0.841
9 | O=P(O)(O)CP(=O)(O)OC[C@H]1O[C@@H](n2cnc3c(N4CC5(CCCCC5)c5ccccc54)nc(Cl)nc32)[C@@H](O)C1O (stereo partly drawn) [d-7] | 197000 | 107000 | 12500 | 21.3
10 | O=P(O)(O)CP(=O)(O)OC[C@H]1O[C@@H](n2cnc3c(N4CC5(Cc6ccccc6C5)C4)nc(Cl)nc32)[C@@H](O)C1O (stereo partly drawn) [d-9] | 22500 | 19700 | 10700 | 2.95
11 | O=P(O)(O)CP(=O)(O)OC[C@H]1O[C@@H](n2cnc3c(N4CC5(CCCc6ccccc65)C4)nc(Cl)nc32)[C@@H](O)C1O (stereo partly drawn) [d-12] | 9900 | 9860 | 8560 | 0.949
12 | O=P(O)(O)CP(=O)(O)OC[C@H]1O[C@@H](n2cnc3c(N4CC5(CCCC5)c5ccccc54)nc(Cl)nc32)[C@@H](O)C1O (stereo partly drawn) [d-13] | 298000 | 108000 | 11600 | 39.5
13 | O=P(O)(O)CP(=O)(O)OC[C@H]1O[C@@H](n2cnc3c(N4CC5(CCC5)c5ccccc54)nc(Cl)nc32)[C@@H](O)C1O (stereo partly drawn) [d-20] | 121000 | 94000 | 15600 | 12.2
14 | O=P(O)(O)CP(=O)(O)OC[C@H]1O[C@@H](n2cnc3c(N4CC5(CCCCCC5)c5ccccc54)nc(Cl)nc32)[C@@H](O)C1O (stereo partly drawn) [d-22] | 167000 | 74100 | 8030 | 28.9

Molecular target: Recombinant human 5′-nucleotidase (hCD73) (Homo sapiens (Human), UniProt P21589)
Sequence (P21589 27-574): as above
Assay: CD73 enzyme inhibition assay (hCD73, AMP substrate, PiColorLock Gold phosphate detection)
Type: biochemical
Conditions: hCD73 1 nM solution, AMP 60 μM solution, 37° C. 20 min, absorbance 635 nm
Experimental: Test compound solution preparation: Stock solution of a test compound was prepared in DMSO at 10 mM concentration. A series of preset 10-concentration solutions of a test compound were prepared by diluting the stock solution in 5-fold gradient dilution with DMSO.
Assay buffer (lx): 20 mm Tris, 25 mM NaCl, 1 mM MgCl2, pH 7.5, 0.005% Tween-20 (freshly prepared, and ready for use).
An aliquot of 0.25 μL of compound solution or DMSO (blank control) was added to each test well of a micro well plate. Recombinant human 5′-nucleotidase (hCD73) was diluted to 1 nM in assay buffer; and an aliquot of 25 μL hCD73 (1 nM) solution was added to the corresponding wells of the plate. The contents of the well were well-mixed, and the plate was covered with sealing film, centrifuged at 1000 rpm for 30 sec., followed by incubation at room temperature for 15 min. AMP, the substrate, was diluted to 60 μM concentration in the assay buffer. To each reaction well was added 25 μL of AMP solution. After mixing well, the plate was covered with sealing film, centrifuged at 1000 rpm for 30 sec., and incubated at 37° C. for 20 min. The absorbance signal (end point) was measured on SPARK plate reader at 635 nm (See PiColorLock™ Gold Phosphate Detection System (Abcam) test kit for reference).
The reaction wells containing CD73 enzyme, substrate AMP and DMSO (no compound) were used as positive control, and the reaction wells containing substrate AMP and DMSO but no CD73 enzyme were used as negative control. The percent (%) inhibition at each concentration of compound was calculated based on and relative to the signal in the High and Low control wells contained within each assay plate. The High control wells were considered as 0% inhibition, and the low control wells, which didn't contain any compound but rather DMSO (final concentration=0.5%), as 100% inhibition. IC50 values were obtained using GraphPad Prism software.

Row | Structure (SMILES) | IC50 [nM]
15 | O=P(O)(O)CP(=O)(O)OC[C@H]1O[C@@H](n2cnc3c(N4CCC5(CCCCC5)C4)nc(Cl)nc32)[C@@H](O)C1O (stereo partly shown) [Compound b, reference compound] | 1.08
16 | O=P(O)(O)CP(=O)(O)OC[C@H]1O[C@@H](n2cnc3c(N4CC(c5ccccc5)c5ccccc54)nc(Cl)nc32)[C@@H](O)C1O (stereo partly drawn) [Compound d-38] | 1.92
17 | O=P(O)(O)CP(=O)(O)OC[C@H]1O[C@@H](n2cnc3c(N4CC5(CCc6ccccc65)C4)nc(Cl)nc32)[C@@H](O)C1O (stereo partly drawn) [d-1] | 0.47
18 | O=P(O)(O)CP(=O)(O)OC[C@H]1O[C@@H](n2cnc3c(N4CC5(CCCCC5)c5ccccc54)nc(Cl)nc32)[C@@H](O)C1O (stereo partly drawn) [d-7] | 1.8
19 | O=P(O)(O)CP(=O)(O)OC[C@H]1O[C@@H](n2cnc3c(N4CCC5(CCc6ccccc65)C4)nc(Cl)nc32)[C@@H](O)C1O (stereo partly drawn) [d-8] | 0.75
20 | O=P(O)(O)CP(=O)(O)OC[C@H]1O[C@@H](n2cnc3c(N4CC5(Cc6ccccc6C5)C4)nc(Cl)nc32)[C@@H](O)C1O (stereo partly drawn) [d-9] | 0.73
21 | O=P(O)(O)CP(=O)(O)OC[C@H]1O[C@@H](n2cnc3c(N4CC5(CCCc6ccccc65)C4)nc(Cl)nc32)[C@@H](O)C1O (stereo partly drawn) [d-12] | 0.4
22 | O=P(O)(O)CP(=O)(O)OC[C@H]1O[C@@H](n2cnc3c(N4CC5(CCCC5)c5ccccc54)nc(Cl)nc32)[C@@H](O)C1O (stereo partly drawn) [d-13] | 1.5
23 | O=P(O)(O)CP(=O)(O)OC[C@H]1O[C@@H](n2cnc3c(N4CC5(CCC5)c5ccccc54)nc(Cl)nc32)[C@@H](O)C1O (stereo partly drawn) [d-20] | 1.29
24 | O=P(O)(O)CP(=O)(O)OC[C@H]1O[C@@H](n2cnc3c(N4CC(c5ccccc5)(c5ccccc5)C4)nc(Cl)nc32)[C@@H](O)C1O (stereo partly drawn) [d-35] | 1.39
25 | O=P(O)(O)CP(=O)(O)OC[C@H]1O[C@@H](n2cnc3c(N4CC(c5ccccc5)C(c5ccccc5)C4)nc(Cl)nc32)[C@@H](O)C1O (stereo partly drawn) [d-36] | 1.86
